Several values for one entry are separate records, joined by “and”; a condition that tells them apart may be missing. Identical values can stand only once. Like-named read-outs stand apart in the source and are kept apart here.
How the values were obtained:
[1] = human plasma, ref Thompson Reuters Integrity, cited from earlier work; for AUC [μM*h] (median): median of reported values
[2] = biological target: HRH1 (histamine receptor H1) (Homo sapiens, UniProt P35367); assay: biochemical; assay type: binding
Sequence of HRH1 (histamine receptor H1) (P35367 whole entry): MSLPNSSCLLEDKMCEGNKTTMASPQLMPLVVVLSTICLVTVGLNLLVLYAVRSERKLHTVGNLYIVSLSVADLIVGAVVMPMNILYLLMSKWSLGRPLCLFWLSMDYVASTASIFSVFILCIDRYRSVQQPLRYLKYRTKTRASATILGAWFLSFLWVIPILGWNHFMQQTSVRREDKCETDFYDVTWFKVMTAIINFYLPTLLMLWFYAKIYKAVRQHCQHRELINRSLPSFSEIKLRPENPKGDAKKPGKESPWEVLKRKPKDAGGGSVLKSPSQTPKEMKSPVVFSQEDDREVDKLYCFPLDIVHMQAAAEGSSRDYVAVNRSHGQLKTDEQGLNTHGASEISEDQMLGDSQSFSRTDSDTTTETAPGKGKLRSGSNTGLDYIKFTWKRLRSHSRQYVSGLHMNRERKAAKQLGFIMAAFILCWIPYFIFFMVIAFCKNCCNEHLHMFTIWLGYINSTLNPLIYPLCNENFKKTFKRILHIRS

[3] = tested on: platelet aggregation in whole human blood; assay: Collagen-induced platelet aggregation in whole human blood; assay type: cell-based
[4] = biological target: T1, PGR (progesterone receptor) (Homo sapiens, UniProt P06401); assay: biochemical
T1 sequence (P06401 679-913 limits assumed): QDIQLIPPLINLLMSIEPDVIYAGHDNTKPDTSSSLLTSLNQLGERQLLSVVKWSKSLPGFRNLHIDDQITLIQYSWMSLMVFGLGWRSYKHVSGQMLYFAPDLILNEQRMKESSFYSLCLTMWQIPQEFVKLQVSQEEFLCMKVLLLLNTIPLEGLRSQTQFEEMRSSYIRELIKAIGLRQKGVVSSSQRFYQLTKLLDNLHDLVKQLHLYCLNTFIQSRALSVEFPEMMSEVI

PTGS1 (ovine COX-1) = biological target: T2, PTGS1 (ovine COX-1) (Ovis aries, UniProt P05979); assay: biochemical
T2 sequence (P05979 25-600): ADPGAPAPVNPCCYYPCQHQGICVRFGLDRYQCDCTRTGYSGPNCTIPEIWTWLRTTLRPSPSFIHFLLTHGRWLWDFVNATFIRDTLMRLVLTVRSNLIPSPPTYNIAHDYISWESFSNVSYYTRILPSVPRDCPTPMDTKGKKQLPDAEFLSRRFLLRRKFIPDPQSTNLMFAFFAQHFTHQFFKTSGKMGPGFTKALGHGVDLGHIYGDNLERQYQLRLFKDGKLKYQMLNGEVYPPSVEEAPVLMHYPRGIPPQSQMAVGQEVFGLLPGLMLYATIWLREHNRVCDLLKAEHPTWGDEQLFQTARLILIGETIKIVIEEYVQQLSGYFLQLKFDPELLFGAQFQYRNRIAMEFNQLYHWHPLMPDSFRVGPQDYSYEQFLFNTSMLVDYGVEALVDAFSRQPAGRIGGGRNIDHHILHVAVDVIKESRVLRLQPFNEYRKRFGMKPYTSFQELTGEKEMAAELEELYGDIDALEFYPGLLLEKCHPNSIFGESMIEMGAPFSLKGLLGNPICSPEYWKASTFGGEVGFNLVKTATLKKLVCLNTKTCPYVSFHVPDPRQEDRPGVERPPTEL

[5] = biological target: OPRM1 (opioid receptor, mu 1) (Homo sapiens, UniProt P35372); assay: OPRM1 functional agonist assay; assay type: cell-based; conditions: Activity (μM) (median), target OPRM1; agonist per Figure S1E
Sequence of OPRM1 (opioid receptor, mu 1) (P35372 whole entry): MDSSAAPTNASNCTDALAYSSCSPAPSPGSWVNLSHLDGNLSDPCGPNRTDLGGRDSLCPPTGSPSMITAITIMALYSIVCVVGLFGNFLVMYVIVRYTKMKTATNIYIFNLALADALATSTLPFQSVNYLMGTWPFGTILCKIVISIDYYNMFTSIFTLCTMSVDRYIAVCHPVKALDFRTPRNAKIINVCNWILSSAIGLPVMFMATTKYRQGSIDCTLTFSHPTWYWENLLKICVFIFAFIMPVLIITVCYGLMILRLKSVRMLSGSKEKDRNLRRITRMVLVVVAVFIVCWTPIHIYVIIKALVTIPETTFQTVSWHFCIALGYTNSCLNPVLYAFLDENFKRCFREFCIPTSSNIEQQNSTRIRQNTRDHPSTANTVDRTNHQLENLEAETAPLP

[6] = Homo sapiens, Platelet, read-out: inhibition of platelet aggregation

Which “AUC [μM*h] (median)” value [1] does the source give for `CNC(=C[N+](=O)[O-])NCCSCc1ccc(CN(C)C)o1` [Ranitidine] here?
Its value is 9.67 µM·h.

What about the “AUC” value ([1]; range of reported values) of the same compound?
The value was 5.66 to 121.90 µM·h.

And the Cmax ([1]; range of reported values)?
The Cmax was 1140 to 9110 nM.

For `CCN(CC)CCCN(c1ccccc1)C1Cc2ccccc2C1` [Aprindine], which IC50 ([2]; IC50 [μM]) is on record?
The IC50 was 0.78 µM.

Which IC50 ([2]; Activity (μM) (median)) does the source give for `CN(C)CCC=C1c2ccccc2C=Cc2ccccc21` [Cyclobenzaprine] here?
Its IC50 is 0.02 µM.

What about the IC50 ([2]; binding to histamine H1 receptor (HRH1), IC50) of the same compound?
Its IC50 is 0.021 µM and 0.02 µM.

And the “AUC [μM*h] (median)” value [1]?
Its value is 0.69 µM·h.

And the “AUC” value ([1]; range of reported values)?
The value was 0.16 to 4.10 µM·h.

And the Cmax ([1]; range of reported values)?
Its Cmax is 10 to 130 nM.

What about the Cmax ([1]; read-out: median Cmax in plasma) of the same compound?
Its Cmax is 61 nM.

For `COc1ccc2c(c1)c(CC(=O)O)c(C)n2C(=O)c1ccc(Cl)cc1` [indomethacin], which inhibition at 50 µM [3, 6] is on record?
Its inhibition at 50 µM is 50%.

Which results are given for `C[C@H]1C[C@@H]2[C@H]([C@@H](O)C[C@@]3(C)[C@H]2CC[C@]3(O)C(=O)CO)[C@@]2(C)C=CC(=O)C=C12` [Methylprednisolone]?
EC50 [4]: 1300 nM; AUC [μM*h] (median) [1]: 1.28 µM·h; AUC ([1]; range of reported values): 0.09 to 10.76 µM·h; Cmax ([1]; range of reported values): 60 to 2110 nM

What does the source list for `COc1ccc(C(Cl)=C(c2ccc(OC)cc2)c2ccc(OC)cc2)cc1` [Chlorotrianisene]?
IC50 (PTGS1 (ovine COX-1)): 160 nM; potency of inhibition of platelet aggregation in whole blood ([3]; 0.5, 5 and 50 μM, collagen 1 μg/mL, compared with indomethacin): almost indistinguishable from that of indomethacin

With `CN1CCN(C2=Nc3ccccc3Oc3ccc(Cl)cc32)CC1` [Loxapine] as the compound, how does the “AUC [μM*h] (median)” value [1] read?
Its value is 0.21 µM·h.

What about the “AUC” value ([1]; range of reported values) of the same compound?
Its value is 0.03 to 0.43 µM·h.

What about the Cmax ([1]; range of reported values) of the same compound?
Its Cmax is 20 to 410 nM.

With `CC(Cc1ccccc1)NCCC(c1ccccc1)c1ccccc1` (centres unmarked) [Prenylamine] as the compound, how does the IC50 ([2]; Activity (μM) (median)) read?
Its IC50 is 7.87 µM.

What about the IC50 ([2]; IC50 [μM]) of the same compound?
Its IC50 is 7.9 µM.

What about the “AUC” value ([1]; range of reported values) of the same compound?
The value was 0.12 µM·h.

And the Cmax ([1]; range of reported values)?
Its Cmax is 1200 nM.

Which EC50 [5] does the source give for `CC(NCCc1ccc(O)cc1)C(O)c1ccc(O)cc1` (centres unmarked) [Ritodrine] here?
Its EC50 is 9.18 µM.

What about the “AUC [μM*h] (median)” value [1] of the same compound?
Its value is 0.11 µM·h.

What about the “AUC” value ([1]; range of reported values) of the same compound?
The value was 0.03 to 0.32 µM·h.

And the Cmax ([1]; range of reported values)?
Its Cmax is 10 to 150 nM.

For `CC(=O)Oc1ccccc1C(=O)O` [Acetylsalicylic acid], which inhibition at 250 µM [3, 6] is on record?
Its inhibition at 250 µM is 42 to 48%.

Reference: publication PMC3383642 (Nature, 2012)
